Data as given in patent US20230286973A1, “PROTEIN SECRETION INHIBITORS” (KEZAR LIFE SCIENCES, priority 2020, published 2023).

How the values were obtained:
[1] = Liver Microsome Stability Assay (mouse); conditions: mouse liver microsomes, with NADPH, 1.0 uM compound
Description: (§1) Stability of a compound was assessed in the presence of liver microsomes from various sources—mouse, rat, monkey and human liver microsomes. 1.0 uM compound, 0.4% DMSO in 0.1 M Potassium Phosphate with 1.0 mg/mL liver microsomes, were incubated at 37° C. with or without 1 mM NADPH. The samples were quenched at 0, and 30 minutes.

[2] = Liver Microsome Stability Assay (monkey); conditions: monkey liver microsomes, with NADPH, 1.0 uM compound
Description: as §1

[3] = system: TNFα-FL/Gaussia Luciferase; test: Dox Induced TNFα-FL-Gluc Assay; type: cell-based; conditions: for IC50: 24 hr Dox induction, 293FRT/TO cells, mean, read-out: 24 hr Dox Inducible TNFaFLGluc 293FRT/TO: Mean IC50; for 24 hr Dox Inducible TNFaFLGluc 293FRT/TO: TNF/PD1: ratio of TNFaFLGluc IC50 to PD1ssGluc IC50, '<=>' given where both are I.A.
How it was run: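 Flp-In 293 T-REx cells stably expressing full-length TNFα (aa 1-233) fused at its C-terminus to Gaussia luciferase under tetracycline-regulated control were plated the day before assay. Compound dilutions in DMSO/media containing doxycycline were added and incubated at 37 °C, 5% CO2. Unspecified stereochemistry denotes stereoisomer mixtures.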

[4] = Liver Microsome Stability Assay (human); conditions: human liver microsomes, with NADPH, 1.0 uM compound
Description: as §1

[5] = system: IL-2-FL/Gaussia Luciferase; test: Dox Induced IL2-FL-Gluc Assay; type: cell-based; conditions: for IC50: 24 hr Dox induction, 293FRT/TO cells, mean, read-out: 24 hr Dox Inducible IL2FLGluc 293FRT/TO: Mean IC50; for 24 hr Dox Inducible IL2FLGluc 293FRT/TO: IL2/PD1: ratio of IL2FLGluc IC50 to PD1ssGluc IC50, '<=>' given where both are I.A.
How it was run: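 Flp-In 293 T-REx cells stably carrying doxycycline-inducible full-length IL-2 (aa 1-153) fused at its C-terminus to Gaussia luciferase, selected with hygromycin and blasticidin. Cells were plated the day before, then treated with compounds in DMSO/media containing doxycycline at 37° C, 5% CO2.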

[6] = system: PD1-ss+10aa/Gaussia Luciferase; test: Dox-Induced PD1-ss-Gluc Assay; type: cell-based; conditions: 24 hr Dox induction; 293FRT/TO cells; mean; read-out: 24 hr Dox Inducible PD1ssGluc 293FRT/TO: Mean IC50
How it was run: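 Flp-In 293 T-REx cells stably carrying a doxycycline-inducible Gaussia luciferase fused to the PD1 signal sequence plus 10 aa were plated the day before. Compound dilutions in DMSO/media containing doxycycline were then added and incubated at 37 °C, 5% CO2. Data for undefined stereochemistry refer to stereoisomer mixtures.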

[7] = Liver Microsome Stability Assay (rat); conditions: rat liver microsomes, with NADPH, 1.0 uM compound
Description: as §1

[8] = system: multiple myeloma cell line NCI-H929; test: H929 Cell Viability Assay; type: cell-based, human; conditions: Homo sapiens, NCI-H929, 48 h, NCI-H929 cells, Celltiter-Glo
How it was run: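 NCI-H929 cells, resuspended in RPMI 1640 with 10% FBS and 2 mM glutamine, were treated with compound dilutions in DMSO/media and incubated 48 hours at 37° C, 5% CO2. Viability was read by CellTiter-Glo luminescence. Compounds drawn without stereochemistry were tested as stereoisomer mixtures.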

[9] = system: multiple myeloma cell line U266B1; test: U266 Cell Viability Assay; type: cell-based, human; conditions: Homo sapiens, U-266, 48 h, U266B1 cells, Celltiter-Glo
How it was run: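 Cells grown in RPMI 1640 with 10% FBS, 2 mM glutamine and penicillin/streptomycin were exposed to compound dilutions in DMSO/media for 48 hours at 37° C., 5% CO2. Viability was read by CellTiter-Glo luminescence. Undefined stereocentres mean data for stereoisomer mixtures.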

[10] = system: HER3-ss+4aa/Gaussia Luciferase; test: Dox-Induced Her3-ss-Gluc Assay; type: cell-based; conditions: 24 hr Dox induction; 293FRT/TO cells; mean; read-out: 24 hr Dox Inducible Her3(ss + 4)Gluc 293FRT/TO: Mean IC50
How it was run: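 Stable Flp-In 293 T-REx line expressing Gaussia luciferase fused to the HER3 signal sequence plus 4 amino acids under tetracycline-regulated (T-REx) control. Cells plated the day before, then treated with compound dilutions in DMSO/media containing doxycycline and incubated at 37° C., 5% CO2.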

SMILES	Liver Microsome Stability (Multiple Species): Mouse - % Remaining after 30 min w/NADPH [1]	Liver Microsome Stability (Multiple Species): Monkey - % Remaining after 30 min w/NADPH [2]	IC50 [3]	24 hr Dox Inducible TNFaFLGluc 293FRT/TO: TNF/PD1 [3]	Liver Microsome Stability (Multiple Species): Human - % Remaining after 30 min w/NADPH [4]	IC50 [5]	24 hr Dox Inducible IL2FLGluc 293FRT/TO: IL2/PD1 [5]	IC50 [6]	Liver Microsome Stability (Multiple Species): Rat - % Remaining after 30 min w/NADPH [7]	EC50 [8]	EC50 [9]	IC50 [10]
N#CC1CC1Cn1cccc1C(=O)Nc1nc([C@H]2CCCN2c2ccccc2)cs1 (stereo partly drawn) [Compound C6, 1-((2-cyanocyclopropyl)methyl)-N-(4-((R)-1-phenylpyrrolidin-2-yl)thiazol-2-yl)-1H-pyrrole-2-carboxamide]	31.1%	7.86%	> 25 µM	>9.60	32.8%	7.29 µM	2.8	2.6 µM	8.19%	11.8 µM	15.3 µM	5.22 µM
NC(=O)CCCn1cccc1C(=O)Nc1nc([C@H]2CCCN2c2ccccc2)cs1 [Compound C7]	26.6%	10.4%	> 25 µM	>6.75	39.7%	> 25 µM	6.8	3.7 µM	27.6%	> 25 µM	> 25 µM	7.97 µM
N#CCC1(Cn2cccc2C(=O)Nc2nc([C@H]3CCCN3c3ccccc3)cs2)CC1 [Compound C8, (R)-1-((1-(cyanomethyl)cyclopropyl)methyl)-N-(4-(1-phenylpyrrolidin-2-yl)thiazol-2-yl)-1H-pyrrole-2-carboxamide]	1.66%	1.37%	> 25 µM	>6.61	5.88%	22.4 µM	5.9	3.78 µM	8.76%	> 25 µM	> 25 µM	9.47 µM
N#CCC1(Cn2cccc2C(=O)Nc2nc([C@H]3CCCN3c3ccccc3)cs2)CCC1 [Compound C9, (R)-1-((1-(cyanomethyl)cyclobutyl)methyl)-N-(4-(1-phenylpyrrolidin-2-yl)thiazol-2-yl)-1H-pyrrole-2-carboxamide]	0.81%	0.38%	> 25 µM	>5.49	3.68%	7.54 µM	1.7	4.56 µM	8.24%	> 25 µM	> 25 µM	6.1 µM
O=C(Nc1nc([C@H]2CCCN2c2ccccc2)cs1)c1cccn1Cc1ccc(=O)[nH]c1 [Compound C10]	29.5%	9.66%	> 25 µM	>4.80	22.6%	7.09 µM	1.4	5.21 µM	38.8%	24.3 µM	> 25 µM	13.9 µM
O=C(O)CCCCn1cccc1C(=O)Nc1nc([C@H]2CCCN2c2ccccc2)cs1 [Compound C11]	52.3%	76.1%	> 25 µM	–	65.2%	> 25 µM	1	> 25 µM	83.1%	> 25 µM	> 25 µM	> 25 µM
